Data published in patent publication US9980943B2, “Methods of treating muscular dystrophy” (BOARD OF REGENTS OF THE NEVADA SYSTEM OF HIGHER EDUCATION, …, priority 2013, dated 2018).

Legend:
Assay type in all cases: cell-based, mouse
[1] = tested on: β-galactosidase in CMV-LacZ C2C12 myoblasts; experiment: CMV-LacZ secondary screen in C2C12 myoblasts (β-Gal stabilizing assay); conditions: CMV-LacZ C2C12 myoblasts
Text: In order to determine compounds that acted to stabilize β-gal in myogenic cells, a CMV-LacZ C2C12 cell line was used in a secondary screen. The EGFP gene from the pEGFP (Clontech) vector was replaced by LACZ PCR product with digests of the vector/PCR product performed using EcoRI (NEB) and NotI (NEB) and ligated using T4 DNA Ligase (NEB) following standard procedures to produce the CMV-LACZ vector. The LACZ gene was generated by PCR from the pBK-RSV (Stratagene) vector using primers LACZ EcoRI F- and LACZ NotI R-. The CMV-LACZ vector was then digested with AfIII (NEB) to linearize the construct, which was then transfected in C2C12 myoblasts using Lipofectamine 2000 (Invitrogen) following the manufacturer's instructions. […] Clonal lines were selected and screened for βgal levels using the myoblast FDG assay.
The assays were used the original 96-well format and new dose-response curves for myoblasts (N=3-6 replicates for each data point), myotubes (N=3-6 replicates for data point), and CMV-LacZ secondary assay (N=2 replicates for each data point) using concentrations of 0.5 μM, 1 μM, 5 μM, 10 μM, 20 μM, and 40 μM (Tables 9-16).

[2] = tested on: α7 integrin (LacZ reporter in α7+/LacZ myotubes); experiment: Myotube α7 integrin FDG assay (Burkin assay in myotubes, 96-well); conditions: myotubes
[3] = tested on: α7 integrin (LacZ reporter in α7βgal+/− myoblasts); experiment: Myoblast α7+/LacZ integrin FDG assay (Burkin assay in myoblasts, 96-well); conditions: α7+/LacZ myoblasts, 96-well
[4] = tested on: β-galactosidase in CMV-LacZ C2C12 myotubes; experiment: CMV-LacZ secondary screen in C2C12 myotubes (β-Gal stabilizing assay); conditions: C2C12 CMV-LacZ myotubes, fold relative to DMSO
Method in brief: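 CMV-LacZ C2C12 line (clonal, FDG-screened); myoblasts/myotubes dosed 0.5–40 μM (0.5, 1, 5, 10, 20, 40 μM); n=2 per point; β-gal stabilization read-out.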

SMILES | CMV-LACZ in Myoblasts (β-galactosidase activity relative to DMSO) ([1]; 0.5 uM) | CMV-LACZ in Myoblasts (β-galactosidase activity relative to DMSO) ([1]; 1 uM) | CMV-LACZ in Myoblasts (β-galactosidase activity relative to DMSO) ([1]; 5 uM) | CMV-LACZ in Myoblasts (β-galactosidase activity relative to DMSO) ([1]; 10 uM) | CMV-LACZ in Myoblasts (β-galactosidase activity relative to DMSO) ([1]; 20 uM) | CMV-LACZ in Myoblasts (β-galactosidase activity relative to DMSO) ([1]; 40 uM) | Burkin Assay in Myotubes, α7 integrin LacZ reporter signal relative to DMSO ([2]; 0.5 uM) | Burkin Assay in Myotubes, α7 integrin LacZ reporter signal relative to DMSO ([2]; 1 uM) | Burkin Assay in Myotubes, α7 integrin LacZ reporter signal relative to DMSO ([2]; 5 uM) | Burkin Assay in Myotubes, α7 integrin LacZ reporter signal relative to DMSO ([2]; 10 uM) | Burkin Assay in Myotubes, α7 integrin LacZ reporter signal relative to DMSO ([2]; 20 uM) | Burkin Assay in Myotubes, α7 integrin LacZ reporter signal relative to DMSO ([2]; 40 uM) | Burkin Assay in Myoblasts, signal relative to DMSO ([3]; 0.5 uM) | Burkin Assay in Myoblasts, signal relative to DMSO ([3]; 1 uM) | Burkin Assay in Myoblasts, signal relative to DMSO ([3]; 5 uM) | Burkin Assay in Myoblasts, signal relative to DMSO ([3]; 10 uM) | Burkin Assay in Myoblasts, signal relative to DMSO ([3]; 20 uM) | Burkin Assay in Myoblasts, signal relative to DMSO ([3]; 40 uM) | CMV-LACZ in Myotubes, signal relative to DMSO ([4]; 0.5 uM) | CMV-LACZ in Myotubes, signal relative to DMSO ([4]; 1 uM) | also measured
CCC(C)n1[nH]c(=O)cc1N (stereo not drawn) [MLS000073150-01] | 1.0753 | 1.8970 | 0.8193 | 0.9954 | 0.9491 | 0.9000 | 1.111 | 0.9205 | 0.9467 | 0.9476 | 0.8369 | 0.856 | 1.262 | 1.0875 | 0.9262 | 0.909 | 1.139 | 1.068 | 1.0752 | 1.0848 | CMV-LACZ in Myotubes, signal relative to DMSO ([4]; 5 uM): 1.2058; CMV-LACZ in Myotubes, signal relative to DMSO ([4]; 10 uM): 1.1088; CMV-LACZ in Myotubes, signal relative to DMSO ([4]; 20 uM): 0.9750; CMV-LACZ in Myotubes, signal relative to DMSO ([4]; 40 uM): 1.0390
CC(=O)Nc1ccc(-n2c(C)nc(=O)c(-c3ccccc3)c2C)cc1 [MLS000078709-01] | 0.8167 | 0.7008 | 0.9270 | 1.0163 | 0.6919 | 0.4830 | 0.8374 | 0.8236 | 0.9535 | 0.9899 | 0.6311 | 0.4894 | 1.063 | 0.996 | 0.8157 | 0.8052 | 0.5171 | 0.2616 | 1.0133 | 0.9257 | CMV-LACZ in Myotubes, signal relative to DMSO ([4]; 5 uM): 0.9348; CMV-LACZ in Myotubes, signal relative to DMSO ([4]; 10 uM): 0.8743; CMV-LACZ in Myotubes, signal relative to DMSO ([4]; 20 uM): 1.0853; CMV-LACZ in Myotubes, signal relative to DMSO ([4]; 40 uM): 1.7737
N#CC1=C2SCN(c3ccccc3)CN2C(=O)CC1c1cccs1 (stereo not drawn) [MLS000080654-01] | 1.1851 | 1.4314 | 1.0703 | 0.9345 | 1.0174 | 0.8815 | 1.067 | 1.092 | 0.9044 | 0.9707 | 0.7422 | 0.6217 | 0.9788 | 0.923 | 0.9235 | 0.9429 | 1.112 | 0.9166 | 1.1229 | 1.0086 | CMV-LACZ in Myotubes, signal relative to DMSO ([4]; 5 uM): 1.0335; CMV-LACZ in Myotubes, signal relative to DMSO ([4]; 10 uM): 1.0399; CMV-LACZ in Myotubes, signal relative to DMSO ([4]; 20 uM): 1.1871; CMV-LACZ in Myotubes, signal relative to DMSO ([4]; 40 uM): 1.4259
